Experimental findings from patent US20230203058A1, “MACROCYCLIC DIAMINE DERIVATIVES AS ENT INHIBITORS FOR THE TREATMENT OF CANCERS, AND COMBINATION THEREOF WITH ADENOSINE RECEPTOR ANTAGONISTS” (ITEOS BELGIUM SA, priority 2020, published 2023) are described below.

Assay [1] has as its system naive CD4+ T cells cultured with allogeneic monocyte-derived dendritic cells. Nature of the assay: Mixed leukocyte reaction assay (FIG. 2). The format is cell-based, human. The conditions noted are these: 300 µM ATP; for Rescue of proliferation of naive CD4 T cells in MLR / IFNγ production in MLR: Compound 2 50 nM; for Rescue of proliferation of naive CD4 T cells in MLR: Compound 11 500 nM; for IFNγ production in MLR: Compound 11 500 nM (FIG. 2B). The protocol:
FIG. 2A depicts a bar graph of percent proliferation normalized to no ATP. Naive CD4^+ T cells were cultured with allogeneic monocyte-derived dendritic cells at a ratio of 10:1 for 96 h in the presence of 300 µM ATP as a source of adenosine and the molecules Compound 2 (50 nM), Compound 11 (500 nM) or concentration-matched DMSO. Proliferation of T cells was assessed by CFSE dilution and normalized to the level observed in T cells activated in the absence of ATP.
FIG. 2B depicts two bar graphs, one showing TNF concentration (pg/mL), and the other showing IFNy (pg/mL). Experiment performed as described in FIG. 2A and supernatant sampled for analysis of cytokines by alphaLISA. **** = p < 0.0001; *** = p < 0.001; ** = p < 0.01 and * = p < 0.05; derived from one-way ANOVA with Tukey’s multiple comparisons test.
PBMCs were isolated from buffy coats via centrifugation of fresh whole blood over Lymphoprep using SepMate-50 tubes (both from […] Technologies) according to the manufacturer’s instructions. Naive CD4^+ T cells were isolated from the PBMCs using the Naive CD4^+ T cell Isolation Kit II, human (Miltenyi Biotec) according to the manufacturer’s instructions and cryopreserved in FBS with 10% DMSO until required. CD14^+ monocytes were also isolated from the PBMC samples using CD14 MicroBeads, human (MiltenyiBiotec) according to the manufacturer’s instructions and used on the day of isolation.
Monocytes were resuspended in RPMI (Lonza) with 10% FBS and cultured in a humidified incubator at 37° C. with 5% CO2 for 6 days in the presence of GM-CSF and IL-4 (R&D Systems), each at 50 ng/ml in 24 well plates. On day 3 of culture half of the medium was carefully removed and replaced with fresh medium containing 100 ng/ml of GM-CSF and IL-4.
On day 6 of culture monocyte-derived dendritic cells (MoDCs) were harvested and washed into X-VIVO15 medium containing 5% human male AB serum (Biowest) and 1 mM sodium pyruvate (Lonza). Naive CD4^+ T cells from a different donor were thawed and CFSE-labelled as described above and washed into the same medium as the MoDCs. Finally, 1 × 10^4 MoDCs were cultured with 1 × 10^5 naive CD4^+ T cells in the presence of ATP (Sigma-Aldrich), uridine or uracil in 96 round well bottom plates for 72 h in a humidified incubator at 37° C. with 5% CO2.
Analysis of proliferation of CD4 T cells via CSFE dilution was performed by flow cytometry using a BD LSR Fortessa with data analysis on FlowJo (BD Biosciences). Cytokines were analysed by alphaLISA (Perkin Elmer) according to the manufacturer’s instructions.

A further assay concerns the target T1, human ENT1 (Homo sapiens, UniProt Q99808).
T1 sequence (Q99808 1-456): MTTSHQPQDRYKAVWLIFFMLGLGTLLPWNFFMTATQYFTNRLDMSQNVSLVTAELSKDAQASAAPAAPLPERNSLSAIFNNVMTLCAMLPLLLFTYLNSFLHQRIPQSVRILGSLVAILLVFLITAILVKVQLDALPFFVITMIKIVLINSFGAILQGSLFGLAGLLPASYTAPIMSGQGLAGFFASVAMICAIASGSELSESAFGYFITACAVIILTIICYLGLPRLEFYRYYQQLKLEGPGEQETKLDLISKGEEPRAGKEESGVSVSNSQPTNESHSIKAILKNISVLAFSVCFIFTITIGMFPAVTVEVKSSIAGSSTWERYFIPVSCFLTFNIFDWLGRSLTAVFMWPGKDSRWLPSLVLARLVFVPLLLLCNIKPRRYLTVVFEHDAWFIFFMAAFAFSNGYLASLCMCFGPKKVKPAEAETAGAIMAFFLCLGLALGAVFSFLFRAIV
Nature of the assay: ENT1 binding assay (competition with Sahenta-DY647 on JAR cells). On the set-up: JAR cells expressing ENT1 were bought from ATCC® (HTB-144TM); host or cells: JAR cells (human choriocarcinoma line; whole cells). The conditions noted are these: competition with Sahenta-DY647 100 nM, 4° C. Summed up:
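Competition binding on intact JAR cells (50000 per well) in HBSS with 10 mM Hepes and 0.1% BSA. Cells pre-incubated with compound 30 min at 4 °C, then Sahenta-DY647 added at its IC90 (100 nM) for another 30 min at 4 °C; after washing, fluorescence read at Ex 630/Em 670 nm.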

Consider `COc1cc(C(=O)OC2CCCOc3cc(cc(OC)c3OC)C(=O)N(C)CCCN3CCCN(CC2)CC3)cc(OC)c1OC` (stereo not shown) [Compound 11, 74,75-dimethoxy-5-methyl-6-oxo-8-oxa-5-aza-1(1,4)-diazepana-7(1,3)-benzenacyclotetradecaphane-12-yl 3,4,5-trimethoxybenzoate], for which, in assay [1], the “Rescue of proliferation of naive CD4 T cells in MLR” value was “weaker restoration” and the “IFNγ production in MLR” value was “smaller effect”. At human ENT1, the concentration for half-maximal inhibition (IC50) lay within 1 to 20 nM.

On to `COc1cc(C(=O)O[C@H]2CCCOc3cc(cc(OC)c3OC)C(=O)OCCCN3CCCN(CC2)CC3)cc(OC)c1OC` [Compound 2, (12S)-74,75-dimethoxy-6-oxo-5,8-dioxa-1(1,4)-diazepana-7(1,3)-benzenacyclotetradecaphane-12-yl 3,4,5-trimethoxybenzoate], for which, in assay [1] (Compound 2 50 nM (FIG. 2B)), the “Production of TNF in MLR” value is reported as “clear restoration with Compound 2, even beyond the control level”. For the same compound, in assay [1], the “Rescue of proliferation of naive CD4 T cells in MLR” value was “near complete rescue”; the “IFNγ production in MLR” value is “significant and consistent increase”. Besides, at human ENT1, the IC50 was 1 to 20 nM.
